From patent US20080269251A1, “Substituted Pyrazinone Derivatives as Alpha2C-Adrenoreceptor Antagonists” (priority 2005, published 2008)

target: T1, human adrenergic-α2A receptor (Homo sapiens, UniProt P08913); assay: Radioligand binding experiment for hα2A-adrenergic receptor ([3H]raulwolscine); settings: [3H]raulwolscine 1 nM, 60 minutes at 25° C.
T1 construct: expressed in transfected cells; host or cells: CHO cells, stably transfected; membrane preparation
T1 sequence (P08913 1-465): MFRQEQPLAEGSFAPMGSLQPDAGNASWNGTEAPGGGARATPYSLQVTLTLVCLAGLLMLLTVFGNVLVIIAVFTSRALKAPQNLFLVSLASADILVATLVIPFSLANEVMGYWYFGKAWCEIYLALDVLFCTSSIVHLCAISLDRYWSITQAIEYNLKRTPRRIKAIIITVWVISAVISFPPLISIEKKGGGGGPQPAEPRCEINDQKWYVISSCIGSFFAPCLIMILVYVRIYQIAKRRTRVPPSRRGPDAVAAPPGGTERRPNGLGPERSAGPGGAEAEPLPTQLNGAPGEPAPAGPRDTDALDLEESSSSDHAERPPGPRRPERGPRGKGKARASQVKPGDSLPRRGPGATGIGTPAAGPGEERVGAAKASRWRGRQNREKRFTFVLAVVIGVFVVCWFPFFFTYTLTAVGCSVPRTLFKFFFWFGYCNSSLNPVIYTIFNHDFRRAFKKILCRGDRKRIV
Method in brief: (§1)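 CHO membranes expressing human α2A or α2C receptors were incubated with 1 nM [^3H]raulwolscine for 60 min at 25° C in glycylglycine 25 mM, pH 8.0, then filtered. Nonspecific binding was defined with 1 μM oxymetazoline for α2A and 1 μM spiroxatrine for α2C. pIC50 came from sigmoidal competition curves.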

Compound | h-α2A pIC50
O=C(CC1CCCC1)NCc1ccc(-n2ccnc(NC3CCN(Cc4ccc5ccccc5c4)CC3)c2=O)cc1 [1-28] | 6.3
O=c1c(NC2CCN(Cc3ccc4ccccc4c3)CC2)nccn1-c1ccc(CN2CCC(Oc3cccnc3)CC2)cc1 [2-17] | 6.6
CC(=O)NCCCC(=O)NCc1ccc(-n2ccnc(NC3CCN(Cc4ccc5ccccc5c4)CC3)c2=O)cc1 [1-62] | 6.4
O=C(NCc1ccc(-n2ccnc(NC3CCN(Cc4ccc5ccccc5c4)CC3)c2=O)cc1)C1CCCO1 (racemic) [1-99] | 6.2
O=C(NCc1ccc(-n2ccnc(NC3CCN(Cc4ccc5ccccc5c4)CC3)c2=O)cc1)Nc1cc(Cl)ccc1Cl [1-54] | 6.0

same assay, conditions: [3H]raulwolscine 1 nM, 60 minutes at 25° C.; read-out: h-α2A pIC50 (converted)

Compound | IC50 [nM]
O=c1c(NC2CCN(Cc3ccc4ccccc4c3)CC2)nccn1-c1ccc(CNCCN2CCOCC2)cc1 [1-93] | 316
CCCNC(=O)NCc1ccc(-n2ccnc(NC3CCN(Cc4ccc5ccccc5c4)CC3)c2=O)cc1 [1-40] | 1260
O=C(NCc1ccc(-n2ccnc(NC3CCN(Cc4ccc5ccccc5c4)CC3)c2=O)cc1)NCc1cc(F)cc(C(F)(F)F)c1 [1-50] | 1260
O=c1c(NC2CCN(Cc3ccc4ccccc4c3)CC2)nccn1-c1ccc(CNCC2CCCO2)c(F)c1 (stereo not drawn) [1-80] | 251
O=C(Cn1ccnc(NC2CCN(Cc3ccc4ccccc4c3)CC2)c1=O)NCc1ccco1 [1-81] | 158
CC(C)(C)OC(=O)NCc1ccc(-n2ccnc(NC3CCN(Cc4ccc5ccccc5c4)CC3)c2=O)cc1 [1-33] | 501
CCNC(=O)Cc1ccc(-n2ccnc(NC3CCN(Cc4ccc5ccccc5c4)CC3)c2=O)cc1 [1-10] | 398
CCOC(CCn1ccnc(NC2CCN(Cc3ccc4ccccc4c3)CC2)c1=O)OC (stereo not drawn) [4-01] | 1260
CCCN(C)C(=O)Cn1ccnc(NC2CCN(Cc3ccc4ccccc4c3)CC2)c1=O [1-13] | 501
COC(=O)CCCC(=O)NCc1ccc(-n2ccnc(NC3CCN(Cc4ccc5ccccc5c4)CC3)c2=O)cc1 [1-37] | 631
O=C(Cn1ccnc(NC2CCN(Cc3ccc4ccccc4c3)CC2)c1=O)NCCN1CCOCC1 [1-94] | 631

Continued, values first:

IC50 [nM] | Compound
251 | O=c1c(NC2CCN(Cc3ccc4ccccc4c3)CC2)nccn1-c1nccs1 [6-01]
398 | O=Cc1ccc(-n2ccnc(NC3CCN(Cc4ccc5ccccc5c4)CC3)c2=O)cc1F [5-11]
200 | COc1ccc(Cn2c(-c3ccc(CO)cc3)c(Cl)nc(NC3CCN(Cc4ccc5ccccc5c4)CC3)c2=O)cc1 [8-03]
> 10000 | O=C(CCN(c1nccn(CCC(=O)c2ccccc2)c1=O)C1CCN(Cc2ccnc3ccccc23)CC1)c1ccccc1 [9-28]
501 | COc1ccc(Cn2c(-c3cccc(CN4CCN(C)CC4)c3)c(Cl)nc(NC3CCN(Cc4ccc5ccccc5c4)CC3)c2=O)cc1 [8-14]
501 | O=c1[nH]ccnc1NC1CCN(Cc2ccc3ccccc3c2)CC1 [5-01]

target: T2, human adrenergic-α2C receptor (Homo sapiens, UniProt P18825); assay: Radioligand binding experiment for hα2C-adrenoceptor ([3H]raulwolscine); settings: [3H]raulwolscine 1 nM, 60 minutes at 25° C.
T2 construct: expressed in transfected cells; host or cells: CHO cells, stably transfected; membrane preparation
T2 sequence (P18825 1-462): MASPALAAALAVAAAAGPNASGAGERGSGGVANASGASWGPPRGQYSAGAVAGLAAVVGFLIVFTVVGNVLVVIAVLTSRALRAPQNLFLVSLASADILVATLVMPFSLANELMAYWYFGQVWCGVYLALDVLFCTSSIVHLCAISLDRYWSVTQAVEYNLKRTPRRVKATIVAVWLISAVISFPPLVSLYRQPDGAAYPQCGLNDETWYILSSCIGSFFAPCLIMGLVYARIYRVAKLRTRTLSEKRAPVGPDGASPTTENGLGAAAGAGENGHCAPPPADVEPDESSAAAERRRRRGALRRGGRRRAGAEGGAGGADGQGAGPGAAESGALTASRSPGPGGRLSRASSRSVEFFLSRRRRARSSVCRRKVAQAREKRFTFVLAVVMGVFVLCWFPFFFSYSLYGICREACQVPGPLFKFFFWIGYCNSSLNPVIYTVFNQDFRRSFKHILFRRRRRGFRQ
Method in brief: as §1

Compound | h-α2C pIC50
O=C(CC1CCCC1)NCc1ccc(-n2ccnc(NC3CCN(Cc4ccc5ccccc5c4)CC3)c2=O)cc1 [1-28] | 7.5
O=c1c(NC2CCN(Cc3ccc4ccccc4c3)CC2)nccn1-c1ccc(CN2CCC(Oc3cccnc3)CC2)cc1 [2-17] | 8.2
CC(=O)NCCCC(=O)NCc1ccc(-n2ccnc(NC3CCN(Cc4ccc5ccccc5c4)CC3)c2=O)cc1 [1-62] | 7.3
O=C(NCc1ccc(-n2ccnc(NC3CCN(Cc4ccc5ccccc5c4)CC3)c2=O)cc1)C1CCCO1 (racemic) [1-99] | 8.1
O=C(NCc1ccc(-n2ccnc(NC3CCN(Cc4ccc5ccccc5c4)CC3)c2=O)cc1)Nc1cc(Cl)ccc1Cl [1-54] | 6.7

same assay, conditions: [3H]raulwolscine 1 nM, 60 minutes at 25° C.; read-out: h-α2C pIC50 (converted)

Compound | IC50 [nM]
O=c1c(NC2CCN(Cc3ccc4ccccc4c3)CC2)nccn1-c1ccc(CNCCN2CCOCC2)cc1 [1-93] | 20
CCCNC(=O)NCc1ccc(-n2ccnc(NC3CCN(Cc4ccc5ccccc5c4)CC3)c2=O)cc1 [1-40] | 100
O=C(NCc1ccc(-n2ccnc(NC3CCN(Cc4ccc5ccccc5c4)CC3)c2=O)cc1)NCc1cc(F)cc(C(F)(F)F)c1 [1-50] | 200
O=c1c(NC2CCN(Cc3ccc4ccccc4c3)CC2)nccn1-c1ccc(CNCC2CCCO2)c(F)c1 (stereo not drawn) [1-80] | 2.51
O=C(Cn1ccnc(NC2CCN(Cc3ccc4ccccc4c3)CC2)c1=O)NCc1ccco1 [1-81] | 31.6
CC(C)(C)OC(=O)NCc1ccc(-n2ccnc(NC3CCN(Cc4ccc5ccccc5c4)CC3)c2=O)cc1 [1-33] | 79.4
CCNC(=O)Cc1ccc(-n2ccnc(NC3CCN(Cc4ccc5ccccc5c4)CC3)c2=O)cc1 [1-10] | 31.6
CCOC(CCn1ccnc(NC2CCN(Cc3ccc4ccccc4c3)CC2)c1=O)OC (stereo not drawn) [4-01] | 100
CCCN(C)C(=O)Cn1ccnc(NC2CCN(Cc3ccc4ccccc4c3)CC2)c1=O [1-13] | 63.1
COC(=O)CCCC(=O)NCc1ccc(-n2ccnc(NC3CCN(Cc4ccc5ccccc5c4)CC3)c2=O)cc1 [1-37] | 39.8
O=C(Cn1ccnc(NC2CCN(Cc3ccc4ccccc4c3)CC2)c1=O)NCCN1CCOCC1 [1-94] | 50.1

More lines, now with the values ahead:

IC50 [nM] | Compound
63.1 | O=c1c(NC2CCN(Cc3ccc4ccccc4c3)CC2)nccn1-c1nccs1 [6-01]
63.1 | O=Cc1ccc(-n2ccnc(NC3CCN(Cc4ccc5ccccc5c4)CC3)c2=O)cc1F [5-11]
251 | COc1ccc(Cn2c(-c3ccc(CO)cc3)c(Cl)nc(NC3CCN(Cc4ccc5ccccc5c4)CC3)c2=O)cc1 [8-03]
631 | O=C(CCN(c1nccn(CCC(=O)c2ccccc2)c1=O)C1CCN(Cc2ccnc3ccccc23)CC1)c1ccccc1 [9-28]
126 | COc1ccc(Cn2c(-c3cccc(CN4CCN(C)CC4)c3)c(Cl)nc(NC3CCN(Cc4ccc5ccccc5c4)CC3)c2=O)cc1 [8-14]
126 | O=c1[nH]ccnc1NC1CCN(Cc2ccc3ccccc3c2)CC1 [5-01]

target: T3, 5HT-transporter (Homo sapiens, UniProt P31645); assay: Binding experiment for the 5HT-transporter ([3H]paroxetine, human platelet membranes); settings: [3H]paroxetine 0.5 nM, 60 min at 25° C.
T3 construct: Human platelet membranes (Oceanix Biosciences Corporation, Hanover, Md., USA) were thawed; tissue Oceanix Biosciences Corporation, Hanover, Md., USA; host or cells: human platelet membranes
Method in brief: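 Competition binding of [3H]paroxetine to human platelet membranes in Tris-HCl 50 mM with 120 mM NaCl and 5 mM KCl; bound radioligand separated by GF/B filtration and counted.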

T3 sequence (P31645 whole entry): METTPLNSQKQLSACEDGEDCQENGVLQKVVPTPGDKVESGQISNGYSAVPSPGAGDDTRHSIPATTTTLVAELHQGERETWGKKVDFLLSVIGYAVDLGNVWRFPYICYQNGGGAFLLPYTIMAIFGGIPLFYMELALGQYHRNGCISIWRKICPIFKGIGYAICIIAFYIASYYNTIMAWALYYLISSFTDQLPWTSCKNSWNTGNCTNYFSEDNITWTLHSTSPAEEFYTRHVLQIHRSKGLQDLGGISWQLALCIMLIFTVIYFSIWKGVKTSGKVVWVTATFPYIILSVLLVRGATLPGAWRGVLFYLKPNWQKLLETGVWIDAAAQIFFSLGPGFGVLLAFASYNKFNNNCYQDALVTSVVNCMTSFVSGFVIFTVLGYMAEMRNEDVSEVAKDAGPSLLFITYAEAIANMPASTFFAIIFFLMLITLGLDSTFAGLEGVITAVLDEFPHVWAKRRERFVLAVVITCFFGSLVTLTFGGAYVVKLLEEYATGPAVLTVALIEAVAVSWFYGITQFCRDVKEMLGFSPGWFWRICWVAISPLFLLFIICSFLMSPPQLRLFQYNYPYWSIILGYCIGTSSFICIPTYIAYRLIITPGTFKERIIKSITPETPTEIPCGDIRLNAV

Compound | h-5HTT pIC50
O=C(CC1CCCC1)NCc1ccc(-n2ccnc(NC3CCN(Cc4ccc5ccccc5c4)CC3)c2=O)cc1 [1-28] | 8.1
O=c1c(NC2CCN(Cc3ccc4ccccc4c3)CC2)nccn1-c1ccc(CN2CCC(Oc3cccnc3)CC2)cc1 [2-17] | 8.6
CC(=O)NCCCC(=O)NCc1ccc(-n2ccnc(NC3CCN(Cc4ccc5ccccc5c4)CC3)c2=O)cc1 [1-62] | 7.5
O=C(NCc1ccc(-n2ccnc(NC3CCN(Cc4ccc5ccccc5c4)CC3)c2=O)cc1)C1CCCO1 (racemic) [1-99] | 7.7
O=C(NCc1ccc(-n2ccnc(NC3CCN(Cc4ccc5ccccc5c4)CC3)c2=O)cc1)Nc1cc(Cl)ccc1Cl [1-54] | 6.8

same assay, conditions: [3H]paroxetine 0.5 nM, 60 min at 25° C., read-out: h-5HTT pIC50 (converted)

Compound | IC50 [nM]
O=c1c(NC2CCN(Cc3ccc4ccccc4c3)CC2)nccn1-c1ccc(CNCCN2CCOCC2)cc1 [1-93] | 15.8
CCCNC(=O)NCc1ccc(-n2ccnc(NC3CCN(Cc4ccc5ccccc5c4)CC3)c2=O)cc1 [1-40] | 50.1
O=C(NCc1ccc(-n2ccnc(NC3CCN(Cc4ccc5ccccc5c4)CC3)c2=O)cc1)NCc1cc(F)cc(C(F)(F)F)c1 [1-50] | 63.1
O=c1c(NC2CCN(Cc3ccc4ccccc4c3)CC2)nccn1-c1ccc(CNCC2CCCO2)c(F)c1 (stereo not drawn) [1-80] | 3.16
O=C(Cn1ccnc(NC2CCN(Cc3ccc4ccccc4c3)CC2)c1=O)NCc1ccco1 [1-81] | 631
CC(C)(C)OC(=O)NCc1ccc(-n2ccnc(NC3CCN(Cc4ccc5ccccc5c4)CC3)c2=O)cc1 [1-33] | 25.1
CCNC(=O)Cc1ccc(-n2ccnc(NC3CCN(Cc4ccc5ccccc5c4)CC3)c2=O)cc1 [1-10] | 15.8
CCOC(CCn1ccnc(NC2CCN(Cc3ccc4ccccc4c3)CC2)c1=O)OC (stereo not drawn) [4-01] | 200
CCCN(C)C(=O)Cn1ccnc(NC2CCN(Cc3ccc4ccccc4c3)CC2)c1=O [1-13] | 2000
COC(=O)CCCC(=O)NCc1ccc(-n2ccnc(NC3CCN(Cc4ccc5ccccc5c4)CC3)c2=O)cc1 [1-37] | 12.6
O=C(Cn1ccnc(NC2CCN(Cc3ccc4ccccc4c3)CC2)c1=O)NCCN1CCOCC1 [1-94] | 2000

The next lines start with the values.

IC50 [nM] | Compound
20 | O=c1c(NC2CCN(Cc3ccc4ccccc4c3)CC2)nccn1-c1nccs1 [6-01]
39.8 | O=Cc1ccc(-n2ccnc(NC3CCN(Cc4ccc5ccccc5c4)CC3)c2=O)cc1F [5-11]
126 | COc1ccc(Cn2c(-c3ccc(CO)cc3)c(Cl)nc(NC3CCN(Cc4ccc5ccccc5c4)CC3)c2=O)cc1 [8-03]
200 | O=C(CCN(c1nccn(CCC(=O)c2ccccc2)c1=O)C1CCN(Cc2ccnc3ccccc23)CC1)c1ccccc1 [9-28]
50.1 | COc1ccc(Cn2c(-c3cccc(CN4CCN(C)CC4)c3)c(Cl)nc(NC3CCN(Cc4ccc5ccccc5c4)CC3)c2=O)cc1 [8-14]
1260 | O=c1[nH]ccnc1NC1CCN(Cc2ccc3ccccc3c2)CC1 [5-01]
